In ChEMBL document CHEMBL4425181, “Synthesis and antileishmanial activity of the core structure of cristaxenicin A” (Bioorg Med Chem Lett, 2016):

How the values were obtained:
Format in all cases: functional, organism-based
[1] = test system: Leishmania donovani; assay: Antileishmanial activity against Leishmania donovani MHOM/NP/03/D10 promastigotes after 72 hrs by EGFP-reporter gene based fluorescence assay; details: MHOM/NP/03/D10, 72 h
[2] = test system: Trypanosoma congolense; assay: Antitrypanosomal activity against Trypanosoma congolense IL3000 incubated for 48 hrs measured after 4 hrs
[3] = test system: Leishmania amazonensis; assay: Antileishmanial activity against Leishmania amazonensis promastigotes after 72 hrs by EGFP-reporter gene based fluorescence assay

| IC50 [1] [nM] | IC50 [2] [nM] | IC50 [3] [nM] | SMILES |
| --- | --- | --- | --- |
| 2400 | – | – | CO[C@H]1OC=C(C(=O)OC(C)C)[C@H]2C/C=C(/C=O)CCCC(=O)[C@H]12 |
| – | 250 | 88 | CC(=O)O/C=C1\CCC/C(C=O)=C\C[C@@H]2C(C(=O)CC=C(C)C)=CO[C@H](OC(C)=O)[C@@H]12 |
